Our source for the TD50 and carcinogen call values is PubChem BioAssay AID1745844 (Carcinogenic Potency Database (CPDB), 2022).

The source made the active and inactive calls. How the calls were made is not given here.

The subject of the data set is rodent lifetime carcinogenesis bioassay, tumor incidence TD50. The experiment in a line: chronic cancer bioassays in animals – CPDB, compiled studies (AID 1745844).
The mark [1] stands for this setting: rat, strain Charles River CD (Sprague-Dawley), males, in feed, site: liver, lesion: hepatocellular adenoma, dosed 104 weeks, study length 104 weeks.

Take `CCOC(=O)N(CC)N=O`: the TD50 runs as follows: (rat, strain Donryu, females, in drinking water, site: any site (literature study), lesion: several types, types named in the paper, dosed 51 weeks, study length 60 weeks) 0.0784 mg/kg/day; (rat, strain Donryu, females, in drinking water, site: duodenum, lesion: adenocarcinoma, dosed 51 weeks, study length 60 weeks) 0.555 mg/kg/day; (rat, strain Donryu, females, in drinking water, site: esophagus, lesion: papilloma, dosed 51 weeks, study length 60 weeks) 0.473 mg/kg/day; (rat, strain Donryu, females, in drinking water, site: esophagus, lesion: squamous-cell carcinoma, dosed 51 weeks, study length 60 weeks) 0.54 mg/kg/day; (rat, strain Donryu, females, in drinking water, site: forestomach, lesion: papilloma, dosed 51 weeks, study length 60 weeks) 0.508 mg/kg/day; (rat, strain Donryu, females, in drinking water, site: forestomach, lesion: squamous-cell carcinoma, dosed 51 weeks, study length 60 weeks) 0.248 mg/kg/day. For the same compound, the TD50 by setting is: (rat, strain Donryu, females, in drinking water, site: several sites, sites named in the paper, lesion: papilloma, dosed 51 weeks, study length 60 weeks) 0.339 mg/kg/day; (rat, strain Donryu, females, in drinking water, site: several sites, sites named in the paper, lesion: squamous-cell carcinoma, dosed 51 weeks, study length 60 weeks) 0.164 mg/kg/day; (rat, strain F344/DuCrj, females, in drinking water, site: any site (literature study), lesion: one or several types, types not named, dosed 97 weeks, study length 112 weeks) 0.135 mg/kg/day; (rat, strain F344/DuCrj, females, in drinking water, site: esophagus, lesion: papilloma, dosed 97 weeks, study length 112 weeks) 0.514 mg/kg/day; (rat, strain F344/DuCrj, females, in drinking water, site: esophagus, lesion: squamous-cell carcinoma, dosed 97 weeks, study length 112 weeks) 0.139 mg/kg/day; (rat, strain F344/DuCrj, females, in drinking water, site: forestomach, lesion: papilloma, dosed 97 weeks, study length 112 weeks) 0.0796 mg/kg/day. Further, the TD50 was 0.213 mg/kg/day (rat, strain F344/DuCrj, females, in drinking water, site: forestomach, lesion: squamous-cell carcinoma, dosed 97 weeks, study length 112 weeks); 3.02 mg/kg/day (rat, strain F344/DuCrj, females, in drinking water, site: oral cavity, lesion: papilloma, dosed 97 weeks, study length 112 weeks); 0.784 mg/kg/day (rat, strain F344/DuCrj, females, in drinking water, site: oral cavity, lesion: squamous-cell carcinoma, dosed 97 weeks, study length 112 weeks); 0.0553 mg/kg/day (rat, strain F344/DuCrj, females, in drinking water, site: upper gastrointestinal tract, lesion: several types, types named in the paper, dosed 97 weeks, study length 112 weeks).
As to `CC(=O)O[C@]1(C(C)=O)CC[C@H]2[C@@H]3C=C(Cl)C4=CC(=O)CC[C@]4(C)[C@H]3CC[C@@]21C`, the TD50 (mouse, strain C3H (MTV+), females, in feed, site: mammary tissue, wider than the gland, lesion: one or several types, types not named, dosed 104 weeks, study length 104 weeks) stood at 3.77 mg/kg/day.
For the compound `Cc1cc(Cc2ccc(N)c(C)c2)ccc1N`, the TD50 (rat, strain Charles River CD (Sprague-Dawley), females, in feed, site: liver, lesion: cholangiocarcinoma, dosed 82 weeks, study length 82 weeks) was 96.3 mg/kg/day; the TD50 (rat, strain Charles River CD (Sprague-Dawley), females, in feed, site: liver, lesion: hepatocellular adenoma, dosed 82 weeks, study length 82 weeks) was found to be 30.5 mg/kg/day; the TD50 (rat, strain Charles River CD (Sprague-Dawley), females, in feed, site: liver, lesion: hepatocellular carcinoma, dosed 82 weeks, study length 82 weeks) is 7.92 mg/kg/day; the TD50 (rat, strain Charles River CD (Sprague-Dawley), males, in feed, site: liver, lesion: hemangioma, dosed 68 weeks, study length 68 weeks) was determined as 35.2 mg/kg/day; the TD50 (rat, strain Charles River CD (Sprague-Dawley), males, in feed, site: liver, lesion: hepatocellular adenoma, dosed 68 weeks, study length 68 weeks) is 17 mg/kg/day; the TD50 (rat, strain Charles River CD (Sprague-Dawley), males, in feed, site: liver, lesion: hepatocellular carcinoma, dosed 68 weeks, study length 68 weeks) is 12.4 mg/kg/day. Besides, the TD50 (rat, strain Charles River CD (Sprague-Dawley), males, in feed, site: mammary gland, lesion: fibroadenoma, dosed 68 weeks, study length 68 weeks) is 6.91 mg/kg/day and the TD50 (rat, strain Charles River CD (Sprague-Dawley), males, in feed, site: skin, lesion: fibroma, dosed 68 weeks, study length 68 weeks) is 8.19 mg/kg/day.
On to `CC(C)NCC(O)c1ccc2ccccc2c1` (stereo not given), for which the carcinogen call (mouse, strain CF-1, females, in feed, site: liver, lesion: one or several types, types not named, dosed 78 weeks, study length 78 weeks) is “negative (inactive)” and the carcinogen call (mouse, strain CF-1, males, in feed, site: liver, lesion: carcinoma, dosed 78 weeks, study length 78 weeks) was “negative (inactive)”. For the same compound, the TD50 is, setting by setting: (mouse, strain CF-1, females, in feed, site: lung, lesion: adenoma, dosed 78 weeks, study length 78 weeks) 1300 mg/kg/day (inactive); (mouse, strain CF-1, males, in feed, site: liver, lesion: adenoma, dosed 78 weeks, study length 78 weeks) 1820 mg/kg/day (inactive); (mouse, strain CF-1, males, in feed, site: lung, lesion: adenoma, dosed 78 weeks, study length 78 weeks) 931 mg/kg/day (inactive); (mouse, strain Not specified, females, in feed, site: thymus gland, lesion: one or several types, types not named, dosed 64 weeks, study length 64 weeks) 408 mg/kg/day; (mouse, strain Not specified, males, in feed, site: thymus gland, lesion: one or several types, types not named, dosed 64 weeks, study length 64 weeks) 1930 mg/kg/day.
Regarding `O=C1N(CCO)CCN1N=Cc1ccc([N+](=O)[O-])o1`, the TD50 reads like this: (rat, strain Sprague-Dawley, females, in feed, site: any site (literature study), lesion: several types, types named in the paper, dosed 46 weeks, study length 66 weeks) 18 mg/kg/day; (rat, strain Sprague-Dawley, females, in feed, site: mammary gland, lesion: adenocarcinoma, dosed 46 weeks, study length 66 weeks) 16.7 mg/kg/day.
For the compound `OC(Cn1cncn1)(Cn1cncn1)c1ccc(F)cc1F`, the carcinogen call is, setting by setting: (mouse, strain Charles River CD1, females, in feed, site: any site (literature study), lesion: several types, types named in the paper, dosed 104 weeks, study length 104 weeks) “negative (inactive)”; (mouse, strain Charles River CD1, females, in feed, site: liver, lesion: hepatocellular carcinoma, dosed 104 weeks, study length 104 weeks) “negative (inactive)”; (mouse, strain Charles River CD1, males, in feed, site: liver, lesion: hepatocellular carcinoma, dosed 104 weeks, study length 104 weeks) “negative (inactive)”; (rat, strain Charles River CD (Sprague-Dawley), females, in feed, site: any site (literature study), lesion: several types, types named in the paper, dosed 104 weeks, study length 104 weeks) “negative (inactive)”; (rat, strain Charles River CD (Sprague-Dawley), females, in feed, site: liver, lesion: hepatocellular carcinoma, dosed 104 weeks, study length 104 weeks) “negative (inactive)”; (rat, strain Charles River CD (Sprague-Dawley), females, in feed, site: mammary gland, lesion: carcinoma, dosed 104 weeks, study length 104 weeks) “negative (inactive)”. Further, the carcinogen call (rat, strain Charles River CD (Sprague-Dawley), females, in feed, site: mammary gland, lesion: fibroadenoma, dosed 104 weeks, study length 104 weeks) was “negative (inactive)”; the carcinogen call (rat, strain Charles River CD (Sprague-Dawley), females, in feed, site: mammary gland, lesion: several types, types named in the paper, dosed 104 weeks, study length 104 weeks) was “negative (inactive)”; the carcinogen call (rat, strain Charles River CD (Sprague-Dawley), males, in feed, site: adrenal medulla, lesion: pheochromocytoma, dosed 104 weeks, study length 104 weeks) is “negative (inactive)”; the carcinogen call (rat, strain Charles River CD (Sprague-Dawley), males, in feed, site: any site (literature study), lesion: several types, types named in the paper, dosed 104 weeks, study length 104 weeks) was “negative (inactive)”. In addition, the TD50 was 129 mg/kg/day (inactive) (mouse, strain Charles River CD1, females, in feed, site: liver, lesion: hepatocellular adenoma, dosed 104 weeks, study length 104 weeks); 239 mg/kg/day (inactive) (mouse, strain Charles River CD1, males, in feed, site: any site (literature study), lesion: several types, types named in the paper, dosed 104 weeks, study length 104 weeks); 144 mg/kg/day (inactive) (mouse, strain Charles River CD1, males, in feed, site: liver, lesion: hepatocellular adenoma, dosed 104 weeks, study length 104 weeks); 298 mg/kg/day (inactive) (rat, strain Charles River CD (Sprague-Dawley), females, in feed, site: liver, lesion: hepatocellular adenoma, dosed 104 weeks, study length 104 weeks); 412 mg/kg/day (inactive) (rat, strain Charles River CD (Sprague-Dawley), females, in feed, site: mammary gland, lesion: adenoma, dosed 104 weeks, study length 104 weeks); 80.7 mg/kg/day under setting [1].
In the case of `FC(Cl)C(F)(F)F` (stereo not given), the TD50 (rat, strain Charles River CD (Sprague-Dawley), females, inhaled, site: mammary gland, lesion: fibroadenoma, dosed 104 weeks, study length 104 weeks) is 56300 mg/kg/day (inactive) and the TD50 (rat, strain Charles River CD (Sprague-Dawley), females, inhaled, site: mammary gland, lesion: several types, types named in the paper, dosed 104 weeks, study length 104 weeks) was 54000 mg/kg/day (inactive).
As for `CCCCCCCCCCCCCCN(C)N=O`, the carcinogen call (rat, strain Fischer 344, males, by gavage, site: any site (literature study), lesion: several types, types named in the paper, dosed 30 weeks, study length 102 weeks) was “positive” and the carcinogen call (rat, strain Fischer 344, males, by gavage, site: urinary bladder, lesion: transitional-cell carcinoma, dosed 30 weeks, study length 102 weeks) is “positive”. Besides, the TD50 reads like this: (rat, strain Fischer 344, males, by gavage, site: lung, lesion: adenocarcinoma, dosed 30 weeks, study length 102 weeks) 60.5 mg/kg/day; (rat, strain Fischer 344, males, by gavage, site: lung, lesion: adenoma, dosed 30 weeks, study length 102 weeks) 29.4 mg/kg/day.
For `CCNc1nc(Cl)nc(NC(C)(C)C#N)n1`, the TD50 is, setting by setting: (rat, strain Charles River CD (Sprague-Dawley), females, in feed, site: liver, lesion: hepatocellular adenoma, dosed 105 weeks, study length 105 weeks) 280 mg/kg/day; (rat, strain Charles River CD (Sprague-Dawley), females, in feed, site: mammary gland, lesion: adenocarcinoma, dosed 105 weeks, study length 105 weeks) 6.65 mg/kg/day; (rat, strain Charles River CD (Sprague-Dawley), females, in feed, site: mammary gland, lesion: benign tumor, dosed 52 weeks, study length 52 weeks) 8.77 mg/kg/day; (rat, strain Charles River CD (Sprague-Dawley), females, in feed, site: mammary gland, lesion: carcinosarcoma, dosed 105 weeks, study length 105 weeks) 140 mg/kg/day; (rat, strain Charles River CD (Sprague-Dawley), females, in feed, site: mammary gland, lesion: fibroadenoma, dosed 52 weeks, study length 52 weeks) 3.03 mg/kg/day; (rat, strain Charles River CD (Sprague-Dawley), females, in feed, site: mammary gland, lesion: malignant tumor, dosed 105 weeks, study length 105 weeks) 6.33 mg/kg/day. Under “rat, strain Charles River CD (Sprague-Dawley), females, in feed, site: mammary gland, lesion: several types, types named in the paper, dosed 105 weeks, study length 105 weeks”, this compound registered a TD50 of 22.9 mg/kg/day. Further, the carcinogen call is, setting by setting: under setting [1], “negative (inactive)”; (rat, strain Charles River CD (Sprague-Dawley), males, in feed, site: liver, lesion: one or several types, types not named, dosed 52 weeks, study length 52 weeks) “negative (inactive)”.
